Data published in US11124483B2, “HER3 ligands and uses thereof” (THE REGENTS OF THE UNIVERSITY OF CALIFORNIA, priority 2015, dated 2021).
pIC50: −log10 of the molar value.

Columns and labels:
Src kinase = Src kinase (UniProt P00523); experiment: In vitro Src kinase assay (30-min); assay type: biochemical; settings: percent activity vs. DMSO control
Method: In vitro Kinase Assays. In vitro kinase assays with the HER2 kinase domain (SignalChem) were performed in triplicate as follows. To 9 μL of a 2.5× solution of kinase and substrate in reaction buffer was added 3 μL of a 5×DMSO or inhibitor dilution in 10% DMSO:water. The inhibitor/kinase solution was incubated at room temperature for 10 minutes. The kinase assay was initiated by the addition of 3 μL of a 5× solution of ATP, and ran for 15 minutes. The final reaction conditions were 50 mM Tris (pH7.4), 5 mM MnCl2, 0.01% Tween-20, 2 mM DTT, 100 μM E4Y substrate (SignalChem), 15 nM HER2, 2% DMSO, 50 μM ATP, and 1 μCi γ^32P-ATP. After 15 minutes, 3 μL of each reaction was pipetted onto phosphocellulose sheets (P81, Whatman) and allowed to dry. The sheets were then washed 4×5 min with a solution of 0.5% phosphoric acid, dried, and exposed to a phosphor screen overnight. Src Kinase assays were conducted as previously described^2. Phosphorimaging was conducted on a Typhoon 9500, image intensities were quantified in ImageQuant 5.2, normalized to the DMSO control and plotted in GraphPad Prism 6.

HER3 TKD = target: T1, HER3 TKD (Homo sapiens, UniProt P21860); experiment: HER3 TKD Thermofluor assay; assay type: binding; settings: 20 μM inhibitor, 2 μM kinase, vs DMSO
T1 construct: made in house
T1 sequence (P21860 709-966 limits assumed): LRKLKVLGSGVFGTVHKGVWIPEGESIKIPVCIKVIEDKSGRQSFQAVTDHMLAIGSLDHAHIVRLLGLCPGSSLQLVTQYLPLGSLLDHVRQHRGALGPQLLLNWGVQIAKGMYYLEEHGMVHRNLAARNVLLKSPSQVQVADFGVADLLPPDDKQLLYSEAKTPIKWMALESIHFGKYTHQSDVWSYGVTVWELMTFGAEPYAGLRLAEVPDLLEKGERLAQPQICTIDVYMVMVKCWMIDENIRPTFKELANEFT
Method: HER3 Thermofluor Assay. Wt HER3 TKD was purified according to the previously published protocol^1. Thermofluor reactions were performed in duplicate and set up as follows. 1 μL of an inhibitor or DMSO dilution in 40% DMSO:water was added to 19 μL of the HER3 kinase domain in reaction buffer. The final reaction solution contained 100 mM MOPS, 200 mM NaCl, 5% glycerol, 5 mM MgCl2, 0.1 mM DTT, 5×SYPRO Orange, 2 μM kinase, 2% DMSO and 20 μM inhibitor in the wells of a 96-well, low profile, white, PCR plate (USA scientific). The solution was pipetted up and down to mix, sealed with TempAssure clear PCR flat caps (USA Scientific), centrifuged at 500×g for 30 s, and heated in a Stratagene Mx3005P RT-PCR machine from 25° C. to 95° C. in 0.5° C. increments every 30 s after an initial incubation at 25° C. for 10 min. Fluorescence was measured at the end of each 30 s period with an excitation wavelength of 492 nm and an emission wavelength of 610 nm. To obtain the melting temperature, fluorescent signals were normalized to the maximum fluorescent signal for that well. Values after the well had reached a maximum signal were discarded and the signals were fit to the Boltzmann equation in Graphpad Prism 6. ΔTm was calculated as the difference in melting temperature between the compound-treated kinase compared to the DMSO control.

| Compound | pIC50 (Src kinase) | binding to HER3 TKD (percent unfolded protein vs. temperature) (HER3 TKD) |
| --- | --- | --- |
| COc1cc(Nc2c(C#N)cnc3cc(OCCCN4CCN(C)CC4)c(OC)cc23)c(Cl)cc1Cl [bosutinib, reference compound] | 8.48 |  |
| COc1cc2ncc(C#N)c(Nc3ccc(Oc4cccc(NC(=O)Nc5cccc(C(F)(F)F)c5)c4)cc3)c2cc1OC [50A, 1-(3-(4-((3-cyano-6,7-dimethoxyquinolin-4-yl)amino)phenoxy)phenyl)-3-(3-(trifluoromethyl)phenyl)urea] | 8.48 | particularly tight binding |
